Assay results as given in patent US7186703B2, “Derivatives of branched-chain lipophilic molecules and uses thereof” (D-Pharm Ltd., priority 2000, dated 2007).
Several values for one entry are separate records, joined by “and”; a condition that tells them apart may be missing. Identical values can stand only once.

How the values were obtained:
[1] = test system: blood brain barrier (BBB); assay: BBB permeabilization in rats, Evans blue extravasation into brain; format: in vivo, Sprague-Dawley rats; conditions: for MEC: Table 8, sodium salt, in µM; for μg EB/g brain (at EC50) / EC50 / MEC (minimal effective concentration): Table 5; for EC50: rat brain, intracarotid infusion, read-out: EC50 (Evans Blue extravasation); for permeabilization of the BBB (FIG. 1, in words): Evans blue extravasation in rat brain, 3,n-type BFAs; for MEC (minimal effective concentration): concentration giving 3 μg EB/g brain
Description: Permeabilization of the BBB by DP-BFA was investigated in rat model system by monitoring accumulation in the brain of two markers: a) Evans blue dye (EB), which rapidly binds in vivo with albumin (NW 70 kD) and is an indicator for paracellular transport; and b) Fluorescein sodium salt (F—Na), MW 376 D, which is transported via the cellular space, and enables monitoring transcellular transport. Upon BBB disruption the Evans blue-albumin complex irreversibly accumulates in the intercellular space of the brain. The much smaller tracer fluorescein may be transported intracellularly to occupy both inter and intracellular space in the brain.
Blood brain barrier permeabilization in Sprague-Dawley rats was induced by brief exposure to DP-BFA. The animals were anesthetized with Rampun-Imalgen and DP-BFA test compounds were administered via the external carotid artery retrograde to the brain (Smith, Q. R. Methods of study. In: Physiology and Pharmacology of the Blood-Brain Barrier. Ed. Bradbury M. W. B. Spinger-Verlag. Berlin-Heidelberg-NY; 1992: 24–52). The pterygo-palathina artery was ligated to avoid escape of infused solutions towards the external head vasculature. DP-BFA solutions were infused over a period of 30 seconds or half an hour, using a Harvard Apparatus Syringe Pump. Blood flow through carotid communis artery was interrupted only at the time of infusion.
All tested DP-BFA molecules were prepared from stock solutions in either water or ethanol by diluting 200–1000 fold into solution of isosmotic mannitol (5%) in Tromethamine buffer (Sigma) or PBS (pH 7.4)
The markers, Evans blue (EB, 25 mg/ml) and fluorescein (F—Na, 12.5 mg/ml), in 1 ml solution, were injected intravenously immediately following administration of the tested DP-BFA, or after a specific time interval if reversibility of action was investigated. Supportive i.v. infusion of F—Na (12.5 mg/ml–100 μl/min) was performed for 8 minutes. Brains were washed with saline solution (60 ml) 10 min after the intracarotid “flash”. Brain ipsilateral and contralateral hemispheres and tumors, where applicable, were homogenized separately with 50% trichloroacetic acid (TCA). The markers concentrations in the cortex and in tumors, where, applicable, were determined spectrofluorometrically (Uyama, O. et al., (1988) J. Cereb. Blood Flow Metab. 8, 282–284: Abraham et al., (1996) Neurosci. Lett. 208, 85–88). The markers content was calculated as μg marker per one-gram brain tissue. Standard error and Student's test for statistical significance were used.
The experiment was carried out on male Sprague-Dawley rats weighing 250–320 g. The procedure described above in Example 17 was followed.
The effect of the tested compounds on the BBB opening was evaluated by two parameters:
a) efficacy—The degree of BBB opening estimated in terms of accumulation of Evans Blue albumin (μg EB/g brain tissue); and
b) potency—measured in terms of EC50 and minimal effective concentration (MEC) values. EC50 is the concentration of a tested compound producing 50% of the maximal effect of Evans Blue extravasation.
The effect of various DP-BFAs on BBB permeability was tested in the model system of rat brains, as described above in Example 17. Efficacy, namely the level of the BBB opening was expressed as the amount of Evans blue accumulated in the brain (μg EB/g brain). Potency of the tested molecules was estimated by their calculated EC50 and minimal effective concentration (MEC) values.

[2] = format: in vivo; conditions: rats, sodium salt; for LC (minimal concentration that caused death): i.a., viability monitored 24 hours
Protocol: DP-BFA molecules were evaluated for safety and toxicity. Increasing doses of the tested compounds were administered intra-arterially (i.a.) into rats following the protocol described above in Example 17. Animal viability was monitored for 24 hours to evaluate lethal concentrations (LC). LC is defined as the minimal concentration that caused death.
Safety index is defined as the ratio between the lethal dose (LC) and the minimal effective concentration (MEC), wherein MEC corresponds to a calculated concentration of the tested compound that elicits accumulation of three times the amount of Evans blue accumulated in control animals treated with vehicle only, i.e. total accumulation of 3 μg EB. The higher the LC/MEC ratio is, the higher the safety index.

[3] = test system: blood tumor barrier (BTB) of C6 glioma; assay: BTB opening in C6 glioma-bearing rats, Evans blue accumulation in tumor; format: in vivo, Sprague Dawley rats; conditions: for EC50: C6 glioma-bearing rats; for BTB EB μg/g Tumor: concentrations around EC50 (Mannitol 25%), unilateral 30 s infusion; for Specificity Tumor/Non-tumor (T/NT): ratio of EB accumulated in tumor and non-tumor brain
Protocol: (§1) In order to study the ability of DP-BFA compounds to modulate blood tumor barrier (BTB), a model system of C6 glioma-bearing rats, was employed.
(§2) Sprague Dawley (SD) rats were inoculated with C6 gliosarcoma cells following the procedure described by Bartus et al. (Exp Neurol (1996); 142:14–28). A small burr-hole was made in the frontal scalp bone of the rat fixed in a stereotaxis apparatus. Using a Hamilton syringe, 10 μl or 5 μl of media, containing 2.5×10^5 C6 gliosarcoma cells were inoculated into the frontal cortex. Coordinates were 1 mm posterior of bregma, 2.5 mm—lateral, and 3 mm—depth. The needle remained in the place for 5 min. After removal of the needle, fascia and scalp were sutured. The rats were checked 6–8 days after inoculation, when tumors of sufficient size (20–60 mg) had developed. The tumor was weighed after F—Na visualization and dissection. Parts of the rats' brains were subject to histological examinations and monitored for Evans Blue and Fluorescein uptake into ipsilateral tumour tissue, peritumoural tissue and contralateral tissue.
(§3) The bilateral tumor model system of C6 glioma-bearing rats described in Example 23 above was employed for screening of various derivatives of DP-BFA for their ability to permeabilize the blood brain barrier (BBB) in comparison to their effect on the blood tumor barrier (BTB). The experimental procedure described in Example 23 was followed except that the tumor-bearing rats were further treated with DP-BFA. The tested compounds, at concentrations around their EC50 values, were unilaterally infused into the external carotis artery over 30 seconds as described in Example 17. Animals treated with vehicle only serve as a control group. Permeabilization effect was quantitated by measuring accumulation of albumin bound Evans blue dye in tumor (T) versus non-tumor (NT) tissues.
(§4) Specificity index is defined as the ratio between the levels of EB accumulated in tumor and those accumulated in non-tumor brain tissues (T/NT).

[4] = test system: blood brain barrier (BBB); assay: BBB opening in C6 glioma-bearing rats, Evans blue accumulation in non-tumor brain; format: in vivo, Sprague Dawley rats; conditions: concentrations around EC50 (Mannitol 25%), unilateral 30 s infusion
Protocol: as §1, §2, §3, §4

[5] = Octanol/saline solubility and partition coefficient, shake-flask technique; conditions: for LogPc (octanol-saline partition coefficient): octanol/physiological saline; for LogPc (octanol-saline partition coefficient) / Water mg/ml (solubility in aqueous solution): sodium salts; for Water mg/ml (solubility in aqueous solution): physiological saline as aqueous solution; for Octanol mg/ml (solubility in octanol): sodium salts of the branched fatty acids and their PO4 derivatives
Protocol: The lipophilicity values of various derivatives of branched fatty acids were estimated by comparing the solubility of these compounds in organic versus aqueous solutions. Octanol and physiological saline were used, respectively, as the organic and aqueous solutions. The partition coefficient (Pc) value, i.e. the octanol/saline distribution was measured by the shake-flask technique.

[6] = test system: blood brain barrier (BBB); assay: BBB permeability to EB-albumin and Fluorescein in normal rat brains; format: in vivo; conditions: compounds at EC50 (Mannitol 25%); for Ratio F-Na/EB (mean of individual ratios): control 9.5 ± 1.6
Description: The effect of various DP-BFAs on BBB permeabilization to molecules of different sizes was examined in vivo in the model system of normal rat brains.
The transport of two markers was followed: a) Evans blue bound to albumin (MW 70 kD) as an indicator for paracellular transport; and b) Fluorescein sodium salt (MW 376 D) that represents small size molecules.
The Evans blue dye (EB) and Fluorescein sodium salt (F—Na) were infused into the artery carotis externa over 30 seconds according to the protocol described above in Example 17. The test compounds were used at their EC50 concentrations. Control animals were treated with vehicle solution.
Evans blue extravasation is expressed as the percentage of the total amount of EB accumulated per one gram of brain tissue. The transport of fluorescein into the brain, which is dependent on the serum concentration of this molecule, is presented as percentage of the F—Na level in the serum.

| Compound | MEC [1] | LC (minimal concentration that caused death) [2] | EC50 [3] | BTB EB μg/g Tumor [3] | Specificity Tumor/Non-tumor (T/NT) [3] | BBB EB μg/g Non-tumor brain [4] | LogPc (octanol-saline partition coefficient) [5] | Water mg/ml (solubility in aqueous solution) [5] | Octanol mg/ml (solubility in octanol) [5] | Ratio F-Na/EB (mean of individual ratios) [6] | Safety LC/MEC [2] | μg EB/g brain (at EC50) [1] | EC50 [1] | permeabilization of the BBB (FIG. 1, in words) [1] | MEC (minimal effective concentration) [1] | % EB/g brain ([6]; control 0.04 ± 0.01) | Brain fluorescein uptake (% of serum F-Na level) ([6]; control 0.3 ± 0.08) |
| --- | --- | --- | --- | --- | --- | --- | --- | --- | --- | --- | --- | --- | --- | --- | --- | --- | --- |
| 4-Hexadecanoyloxyethyl phosphate [3,12-MEG-PO4] | 11 ± 2 | 80 ± 15 µM | 22 ± 3 µM | 25 ± 3 µg/g | 1.2 ± 0.2 | 21 ± 4 µg/g | 1.09 | >10 mg/mL | >10 mg/mL | – | – | – | – | – | – | – | – |
| 4-Hexadecanyl Phosphate [3,12-PO4] | 3.3 ± 0.5 | 63 ± 12 µM | 10 ± 2 µM | 14 ± 6 µg/g | 6.3 ± 1.3 | 2.5 ± 1.5 µg/g | 1.9 | >2.5 mg/mL | <5 mg/mL | 5.9 | 19.1 | – | – | – | – | – | – |
| 4-Octadecyl phosphate [3,14-PO4] | 6.2 ± 0.9 | 134 ± 18 µM | – | – | – | – | – | – | – | – | 21.6 | – | – | – | – | – | – |
| CCCCCCCC(CCC)C(=O)[O-].[Na+] (stereo not shown) [3,7-Na, reference compound] | – | – | – | – | – | – | – | – | – | – | – | 0.8 μg EB/g brain | > 450 µM | – | – | – | – |
| CCCCCCCCCCC(CCC)C(=O)[O-].[Na+] (stereo not shown) [3,10-Na, reference compound] | – | – | – | – | – | – | – | – | – | – | – | 08 μg EB/g brain | ~700 µM | – | – | – | – |
| CCCCCCCCCCCCC(CCC)OCCOCCOP(=O)(O)O (stereo not shown) [3,12-(ether)-DEG-PO4, 2-(4′-Hexadecanyloxy)ethoxyethyl phosphate] | – | – | – | – | – | – | 0.83 | >5 mg/mL | >5 mg/mL | – | – | – | – | – | – | – | – |
| CCCCCCCCCCCCCCC(CCC)C(=O)[O-].[Na+] (stereo not shown) [3,14-Na, reference compound] | 9.1 ± 1.2 | 78 ± 11 µM | – | – | – | – | 1.26 | >10 mg/mL | >20 mg/mL | 4.7 and 4.7 ± 1.7 | 8.6 | 16.5 ± 2.5 μg EB/g brain | 40 ± 5 µM | active | 9.1 ± 12 | 0.8 ± 0.07% | 3.8 ± 0.5 % of the F—Na level in the ser |
| CCCCCCCCCCCCCCCCC(CCC)C(=O)[O-].[Na+] (stereo not shown) [3,16-Na, reference compound] | 18 ± 2 | 431 ± 55 µM | – | – | – | – | 1.26 | 9.4 mg/mL | >20 mg/mL | – | 23.9 | – | 137 ± 17 µM | active | 18 ± 2 | – | – |
| CCCCCCCC(CCCCCCC)OP(=O)(O)O [7,7-PO4, 8-Pentadecyl phosphate] | – | – | – | – | – | – | <5 | >10 mg/mL | >10 mg/mL | – | – | – | – | – | – | – | – |
